# Results: article PMC4042160, “In silico, in vitro and cellular analysis with a kinome-wide inhibitor panel correlates cellular LRRK2 dephosphorylation to inhibitor activity on LRRK2” (Frontiers in Molecular Neuroscience, 2014)
# Several values for one entry are separate records, joined by “and”; a condition that tells them apart may be missing. Equal values may be shown once.
# Assays:
# [1] = target: T1, full length LRRK2 protein (Homo sapiens, UniProt Q5S007); assay: In vitro LRRKtide kinase assay with full length recombinant LRRK2, dose-response (IC50/pIC50); format: biochemical; conditions: LRRKtide phosphorylation, dose-response; for IC50: read-out: IC50 in vitro (lrrktide)
# T1 construct: compounds were tested in triplicate with full length LRRK2 protein; made in house
# [2] = target: T2, LRRK2 phospho-Ser935 (Homo sapiens, UniProt Q5S007); assay: Cellular LRRK2 phosphoserine 935 dephosphorylation spotblot assay in SH-SY5Y cells stably expressing 3xFlag-LRRK2; format: cell-based; conditions: for Cellular pS935 (% @ 5 μM): pS935 level as % of control, 5 μM for 2 h, SH-SY5Y cells with stable expression of LRRK2; for Phosphorylation level relative to solvent (%) (cellular pS935 assay): @ 5 μM for 2 h, SH-SY5Y stably expressing LRRK2, pS935/total LRRK2; for dephosphorylation of LRRK2 (Ser935): 5 μM, 2 h, SH-SY5Y
# T2 construct: expressed in transfected cells
# [3] = target: T3, GST-tagged truncated LRRK2 containing residues 970 to 2527 (Homo sapiens, UniProt Q5S007); assay: In vitro LRRKtide peptide-substrate kinase assay, single dose testing (10 μM); format: biochemical; conditions: for % LRRKtide phosphorylation relative to solvent: LRRKtide assay @ 10 μM inhibitor, GST-LRRK2 970-2527, 10 μM ATP, mean, N = 3, solvent control = 100%; for activity on LRRK2 kinase activity in vitro (in words): no activity at 10 μM
# T3 construct: GST-tagged truncated LRRK2 containing residues 970 to 2527 (Life Technologies); purchased Life Technologies
# T3 sequence (Q5S007 970-2527): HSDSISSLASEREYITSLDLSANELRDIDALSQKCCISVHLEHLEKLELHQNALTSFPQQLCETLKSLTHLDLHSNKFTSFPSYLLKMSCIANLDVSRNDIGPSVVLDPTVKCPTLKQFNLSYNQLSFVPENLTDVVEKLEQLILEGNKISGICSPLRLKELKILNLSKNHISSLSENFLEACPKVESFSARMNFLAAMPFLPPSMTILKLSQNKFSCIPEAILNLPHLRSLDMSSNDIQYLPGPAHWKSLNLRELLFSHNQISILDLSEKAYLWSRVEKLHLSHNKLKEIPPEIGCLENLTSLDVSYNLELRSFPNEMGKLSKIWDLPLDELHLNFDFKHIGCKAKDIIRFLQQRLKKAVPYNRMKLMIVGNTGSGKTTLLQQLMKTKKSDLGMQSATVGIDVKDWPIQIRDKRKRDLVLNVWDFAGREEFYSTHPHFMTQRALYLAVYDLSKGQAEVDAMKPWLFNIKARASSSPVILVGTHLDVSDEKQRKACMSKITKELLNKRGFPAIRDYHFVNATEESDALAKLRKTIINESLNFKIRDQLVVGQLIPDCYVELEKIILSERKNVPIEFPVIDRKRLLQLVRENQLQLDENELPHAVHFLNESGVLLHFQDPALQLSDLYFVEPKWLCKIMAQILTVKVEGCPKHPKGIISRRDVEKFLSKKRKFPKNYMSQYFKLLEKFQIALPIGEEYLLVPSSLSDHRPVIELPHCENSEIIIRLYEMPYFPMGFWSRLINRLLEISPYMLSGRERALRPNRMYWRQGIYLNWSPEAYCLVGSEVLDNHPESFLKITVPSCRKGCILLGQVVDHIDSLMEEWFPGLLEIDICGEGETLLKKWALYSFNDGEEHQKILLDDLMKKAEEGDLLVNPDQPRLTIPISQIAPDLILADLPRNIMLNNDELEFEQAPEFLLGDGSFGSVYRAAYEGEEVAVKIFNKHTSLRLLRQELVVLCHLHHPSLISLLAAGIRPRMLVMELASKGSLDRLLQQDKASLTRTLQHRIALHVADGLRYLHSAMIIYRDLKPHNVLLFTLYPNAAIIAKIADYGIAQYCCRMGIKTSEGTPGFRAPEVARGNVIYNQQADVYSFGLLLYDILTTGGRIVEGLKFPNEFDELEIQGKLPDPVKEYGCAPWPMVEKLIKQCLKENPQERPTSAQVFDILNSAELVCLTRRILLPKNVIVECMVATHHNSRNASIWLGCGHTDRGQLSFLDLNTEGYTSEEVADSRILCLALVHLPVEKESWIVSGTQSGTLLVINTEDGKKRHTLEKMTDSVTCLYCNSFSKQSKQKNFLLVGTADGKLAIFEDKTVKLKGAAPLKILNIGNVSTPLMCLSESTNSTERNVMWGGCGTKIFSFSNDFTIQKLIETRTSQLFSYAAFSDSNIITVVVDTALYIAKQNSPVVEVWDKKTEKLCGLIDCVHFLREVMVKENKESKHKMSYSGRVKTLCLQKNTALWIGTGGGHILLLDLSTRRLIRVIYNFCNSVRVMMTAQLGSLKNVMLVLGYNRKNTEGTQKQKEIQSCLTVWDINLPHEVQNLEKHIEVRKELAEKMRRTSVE
# T2 sequence (Q5S007 whole entry): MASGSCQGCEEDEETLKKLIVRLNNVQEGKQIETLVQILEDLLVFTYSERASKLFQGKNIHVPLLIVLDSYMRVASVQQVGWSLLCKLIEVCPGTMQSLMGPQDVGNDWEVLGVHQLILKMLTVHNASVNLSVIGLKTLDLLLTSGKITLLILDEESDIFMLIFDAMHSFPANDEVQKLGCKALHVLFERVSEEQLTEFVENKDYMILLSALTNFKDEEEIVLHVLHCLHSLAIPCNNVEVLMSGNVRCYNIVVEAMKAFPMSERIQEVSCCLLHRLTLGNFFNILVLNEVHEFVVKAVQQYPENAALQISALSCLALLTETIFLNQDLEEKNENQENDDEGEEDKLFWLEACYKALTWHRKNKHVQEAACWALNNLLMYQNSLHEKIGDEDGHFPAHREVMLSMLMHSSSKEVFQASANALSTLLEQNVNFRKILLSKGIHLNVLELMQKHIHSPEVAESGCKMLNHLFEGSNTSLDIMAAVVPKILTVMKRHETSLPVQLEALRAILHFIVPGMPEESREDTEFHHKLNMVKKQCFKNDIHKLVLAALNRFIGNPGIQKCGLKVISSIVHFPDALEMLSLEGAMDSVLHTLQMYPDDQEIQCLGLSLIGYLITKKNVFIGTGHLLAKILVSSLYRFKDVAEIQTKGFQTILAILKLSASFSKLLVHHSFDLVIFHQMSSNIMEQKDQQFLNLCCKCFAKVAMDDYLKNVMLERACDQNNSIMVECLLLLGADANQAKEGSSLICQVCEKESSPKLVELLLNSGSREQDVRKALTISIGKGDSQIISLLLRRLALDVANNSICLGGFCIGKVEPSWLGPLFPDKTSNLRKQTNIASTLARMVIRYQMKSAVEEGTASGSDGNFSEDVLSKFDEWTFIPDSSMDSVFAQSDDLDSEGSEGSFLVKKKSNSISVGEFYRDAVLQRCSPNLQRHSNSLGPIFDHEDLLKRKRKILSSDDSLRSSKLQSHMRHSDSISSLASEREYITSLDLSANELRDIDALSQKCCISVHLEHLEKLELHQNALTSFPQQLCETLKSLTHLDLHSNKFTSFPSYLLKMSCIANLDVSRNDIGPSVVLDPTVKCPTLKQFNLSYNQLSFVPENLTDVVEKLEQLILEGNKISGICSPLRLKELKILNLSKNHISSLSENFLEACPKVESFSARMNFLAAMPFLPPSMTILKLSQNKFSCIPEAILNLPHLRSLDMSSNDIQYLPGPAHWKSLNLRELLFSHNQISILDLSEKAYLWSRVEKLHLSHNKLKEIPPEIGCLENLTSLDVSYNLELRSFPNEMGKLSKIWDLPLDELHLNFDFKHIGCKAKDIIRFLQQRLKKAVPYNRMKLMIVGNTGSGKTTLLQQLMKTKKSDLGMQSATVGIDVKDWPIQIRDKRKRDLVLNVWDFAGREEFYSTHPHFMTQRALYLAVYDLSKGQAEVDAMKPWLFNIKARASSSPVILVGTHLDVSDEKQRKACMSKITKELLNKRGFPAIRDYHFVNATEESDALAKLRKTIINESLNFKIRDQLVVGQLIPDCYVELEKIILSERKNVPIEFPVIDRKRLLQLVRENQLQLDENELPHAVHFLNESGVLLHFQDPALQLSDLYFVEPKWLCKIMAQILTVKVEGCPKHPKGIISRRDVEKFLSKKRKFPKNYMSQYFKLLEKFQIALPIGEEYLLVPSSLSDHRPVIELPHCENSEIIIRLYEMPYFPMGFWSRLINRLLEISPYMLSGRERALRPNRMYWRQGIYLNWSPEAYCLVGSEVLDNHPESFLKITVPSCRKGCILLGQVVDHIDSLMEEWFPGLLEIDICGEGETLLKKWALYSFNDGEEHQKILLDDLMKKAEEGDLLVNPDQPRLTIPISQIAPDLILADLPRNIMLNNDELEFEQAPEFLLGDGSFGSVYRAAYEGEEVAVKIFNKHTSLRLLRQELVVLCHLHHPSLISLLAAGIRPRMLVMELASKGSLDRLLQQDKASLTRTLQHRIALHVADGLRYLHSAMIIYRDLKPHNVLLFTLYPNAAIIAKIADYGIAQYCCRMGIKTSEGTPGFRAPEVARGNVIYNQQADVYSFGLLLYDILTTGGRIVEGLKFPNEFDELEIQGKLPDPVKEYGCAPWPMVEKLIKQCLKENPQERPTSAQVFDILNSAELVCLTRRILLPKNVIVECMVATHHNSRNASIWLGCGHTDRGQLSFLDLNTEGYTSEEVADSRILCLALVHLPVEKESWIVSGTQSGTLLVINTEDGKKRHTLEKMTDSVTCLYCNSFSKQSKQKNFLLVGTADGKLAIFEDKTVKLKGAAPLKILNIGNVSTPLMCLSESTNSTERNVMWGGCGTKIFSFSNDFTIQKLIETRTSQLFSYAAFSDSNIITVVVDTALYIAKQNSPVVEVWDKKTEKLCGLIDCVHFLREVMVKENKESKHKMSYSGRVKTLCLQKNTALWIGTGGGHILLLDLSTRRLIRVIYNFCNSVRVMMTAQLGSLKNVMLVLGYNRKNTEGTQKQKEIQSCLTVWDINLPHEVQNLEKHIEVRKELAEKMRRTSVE
# T1 sequence (Q5S007 whole entry): as above
% LRRKtide phosphorylation relative to solvent [3],Phosphorylation level relative to solvent (%) (cellular pS935 assay) [2],Molecule,further results
34.30%,77.68%,COc1cc2nccc(Oc3ccc(NC(=S)NC(=O)c4ccccc4C)cc3)c2cc1OC [PDGF RTK inhibitor],
10.36%,69.28%,"C[C@@H](N)[C@H]1CC[C@H](C(=O)Nc2ccncc2)CC1 [ROCK inhibitor, Y-27632, Y-27632]",
11.18%,85.53%,Indirubin-3′-monoxime,
21.13%,108.79%,O=C1C(Cl)=C(N2C(=O)CCC2=O)C(=O)c2ccccc21 [MEK inhibitor II],
3.50%,76.71%,NCCNc1ncc(C(N)=O)c(Nc2cccc(C(F)(F)F)c2)n1 [Syk inhibitor II],
93.55%,66.60%,PI 3-KbInhibitor II,
10.29%,59.98%,Cc1cncc2cccc(S(=O)(=O)N3CCCN(C(=O)CN)C[C@@H]3C)c12 [Rho kinase inhibitor IV],
45.29%,155.11%,"Cl.Cl.O=S(=O)(NCCNC/C=C/c1ccc(Br)cc1)c1cccc2cnccc12 [H-89, Dihydrochloride]",
55.78%,71.83%,O=C(Nc1nc2ccccc2n1CCN1CCOCC1)c1cccc([N+](=O)[O-])c1 [IRAK-1/4 inhibitor],
94.81%,121.09%,Fc1ccc(-c2nc3n(c2-c2ccncc2)CCS3)cc1 [SKF-86002],
107.82%,47.60%,O=c1cc(N2CCNCC2)oc2c(-c3ccccc3)cccc12 [LY 303511],activity on LRRK2 kinase activity in vitro (in words) [3]: inactive; dephosphorylation of LRRK2 (Ser935) [2]: ~ 50%
37.61%,71.85%,N#CC(c1ccnc(NCCc2cccnc2)n1)c1nc2ccccc2s1 (stereo not shown) [JNK inhibitor V],
47.94%,71.73%,c1ccc(-c2[nH]ncc2-c2ccnc3ccccc23)nc1 [TGF-b RI kinase inhibitor],
90.96%,63.71%,CC(C)N(CCC(=O)c1ccc2ccccc2c1)Cc1ccccc1 [JAK3 inhibitor IV],
112.29%,83.74%,CSc1nc(-c2ccnc(NC(C)c3ccccc3)c2)c(-c2ccc(F)cc2)[nH]1 (stereo not shown) [p38 MAP kinase inhibitor III],
90.73%,74.17%,O=c1cc(N2CCOCC2)oc2c(-c3ccccc3)cccc12 [LY 294002],

# Continued, molecule first:
Molecule,% LRRKtide phosphorylation relative to solvent [3],Phosphorylation level relative to solvent (%) (cellular pS935 assay) [2],further results
CCCNC(=O)Nc1ccc(Oc2ncnc3cc(OC)c(OC)cc23)cc1Cl,,,pIC50 in vitro (lrrktide) [1]: <5; IC50 [1]: > 10000 nM; Cellular pS935 (% @ 5 μM) [2]: 62.48%
Syk inhibitor,,,pIC50 in vitro (lrrktide) [1]: 6.20; IC50 [1]: 632 nM; Cellular pS935 (% @ 5 μM) [2]: 57.29%
O=C(Nc1ccc(Cl)cc1)c1ccccc1NCc1ccncc1 [VEGF receptor tyrosine kinase inhibitor II],91.34%,65.97%,
NC(=O)Nc1sc(-c2ccc(F)cc2)cc1C(N)=O [IKK-2 inhibitor IV],5.13%,108.38%,
O=C(Nc1cccc(Nc2nccc(Nc3cccc(C(F)(F)F)c3)n2)c1)C1CC1 [Aurora kinase inhibitor III],83.96% and 44.16%,,activity on LRRK2 kinase activity in vitro (in words) [3]: inactive; dephosphorylation of LRRK2 (Ser935) [2]: ~ 50%
N#CC(C#N)=C(N)/C(C#N)=C/c1ccc(O)cc1 [AG 112],77.45%,60.39%,
O=[N+]([O-])/C=C/c1ccc2c(c1)OCO2 [Syk inhibitor III],82.95%,68.01%,
"CCN1/C(=C/C(C)=O)Sc2ccc(OC)cc21 [Cdc2-like kinase inhibitor, TG003, TG003]",37.41%,81.30%,
Nc1nc(Nc2ccc(S(N)(=O)=O)cc2)nn1C(=O)c1c(F)cccc1F [Aurora kinase/Cdk inhibitor],1.21%,45.67%,
Cc1nc2cc3nc(-c4cccs4)cnc3cc2n1C [AGL 2043],29.68%,90.06%,
GTP-14564,18.03%,71.63%,
O=c1cc(N2CCOCC2)oc2c1ccc1ccccc12 [DNA-PK inhibitor II],86.06%,81.93%,
COc1ccc2c(c[n+](C)c3c4cc5c(cc4ccc23)OCO5)c1OC [Chelerythrine chloride],77.91%,67.25%,
"N#CCCc1ccc2c(c1)-c1[nH]c3ccc([N+](=O)[O-])cc3c1CC(=O)N2 [Alsterpaullone, 2-Cyanoethyl]",10.82%,96.84%,
O=C1NC(=O)c2c1c1c3ccccc3[nH]c1c1[nH]c3cc(Br)ccc3c21 [Cdk4 inhibitor],6.82%,49.88%,
Cc1ccc(NC2=CC(=O)c3sc(C)nc3C2=O)cc1 [Cdk4 inhibitor III],26.80%,48.63%,
COc1ccc2c(c1)c(C1=C(c3c[nH]c4ccccc34)C(=O)NC1=O)cn2CCCN(C)C [Gö 6983],3.04%,70.11%,
O=c1c2ccccc2[nH]c(=S)n1CCN1CCC(=C(c2ccc(F)cc2)c2ccc(F)cc2)CC1 [Diacylglycerol kinase inhibitor II],119.82%,84.54%,
CN(C)CCCn1cc(C2=C(c3c[nH]c4ccccc34)C(=O)NC2=O)c2ccccc21 [Bisindolylmaleimide I],4.46%,73.14%,
NC(=O)c1cccc(-c2cc(Nc3ccc(OC(F)(F)F)cc3)ncn2)c1 [Bcr-abl inhibitor],82.04%,78.83%,
COc1cccc(-c2cc(=O)c3ccccc3o2)c1N [PD98059],92.53%,106.55%,
